We go through 3 substances from article PMC5922347, “Application of polymersomes engineered to target p32 protein for detection of small breast tumors in mice” (Oncotarget, 2018).

“And” between values parts separate entries of the source, which are not always exact repeats. Identical values can stand only once.

The nature of data set [1]: Elimination rate of 124I from whole-body PET signal. More on the design: species or system Balb/c mice. The note with it: mouse, in vivo. As to the method:
(§1) For biodistribution studies, the tumor, blood, and organs were weighed and the radioactivity was measured using the automatic gamma counter. A standard curve was generated using ^124I to determine the relationship between cpm and Bq. The biodistribution was expressed as percentage of injected dose per gram of tissue (ID/g). To determine the elimination rate of polymersomes, the radioactive signal in the whole mouse body was measured from the PET images at 10 min, 2, 6, 12, 24, and 48 h post-injection and normalized by the signal at 10 min post-injection. The elimination rate was expressed as signal in mouse x 100 divided by the signal at time zero.

For data set [2], the system named is orthotopic 4T1 breast tumors. In words: Ex vivo biodistribution by gamma counter in 4T1 tumor mice. More on the design: species or system Balb/c mice. Conditions: for Increase in tumor accumulation by LinTT1 functionalization: versus untargeted polymersomes, 48 h, % ID/g. Here is the method:
(§2) For tumor induction, 1 million 4T1 cells in 50μL of PBS were orthotopically implanted in the mammary gland of Balb/c mice (Charles River Laboratories, Spain). After 3 days, when the tumor volume had reached ∼18 mm^3, the mice were injected in tail vein with 3.7-7.4MBq of radiolabeled polymersomes (1mg polymer, 100 μL, N=5 mice) and subjected to PET-CT scans. During the scan acquisitions the mice were kept anesthetized with 1.5−2% isofluorane blended with O2. The PET-CT scans were performed at 10 min, 2, 6, 12, 24, and 48 h using the Argus PET-CT scanner (Sedecal, Molecular Imaging, Spain). First, PET scans were acquired using the following acquisition protocol: whole body emission scan, 2 beds, 10 min of total acquisition time for the scans at 10 min, 2, 6, 12, and 24 h post-injection and 20 min for the 48 h time point. The acquisition method was static, using 400-700KeV energetic window, FBP reconstruction algorithm, with correction for scatter coincidences. For the CT scans the used current was 140μA, 40kV of voltage, rotation of 360 degrees, 4 shoots, 1 bed, acquisition time of 6 min, and a reconstruction binning of 2. After 48 h of radiolabeled polymersome injection the mice were sacrificed and the tumor, blood, and organs were excised and further used for biodistribution studies. The PET-CT images were processed with the Medical Image Data Examiner AMIDE software. The CT and PET images were overlaid, the tumor volume was manually extracted from the CT scans and the same ROI was applied in the PET images, averaged, and expressed as percentage of injected dose per cubic centimeter of tissue (ID/cc). For the rendered 3D PET-CT images, PMOD image analysis software (PMOD Technologies Ltd, Zürich, Switzerland) was used. A 3D Gauss Filter of 1.5x1.5x1.5mm was applied to the PET image in order to increase the signal to noise ratio for 3D visualization.
as §1

The subject of data set [3] is human recombinant p32 protein. In words: Binding of radiolabeled polymersomes to p32-coated magnetic beads. Conditions: p32-coated Ni-NTA magnetic beads, 1 h, room temperature, 1% BSA, gamma counter, N=3. As to the method: Recombinant hexahistidine–tagged p32 was bacterially expressed and purified as previously described. For protein binding assays, Ni-NTA magnetic agarose beads (Qiagen, Germany) in binding buffer (50 mM Tris pH 7.4, 150 mM NaCl, 5mM imidazole) were coated with p32 protein at 15 μg of protein/10μL beads. Radiolabeled polymersomes were incubated with the p32-coated beads in binding buffer containing 1% BSA at room temperature for 1 h. The magnetic beads were washed with binding buffer and resuspended in a final volume of 1mL of binding buffer. The radioactivity of each sample was quantified by automatic gamma counter (2470 Wizard 2, Perkin Elmer).

For data set [4], the system named is orthotopic 4T1 breast tumors. Briefly: In vivo PET-CT imaging of radiolabeled polymersomes in 4T1 tumor mice. Further details: species or system Balb/c mice. As to the method:
as §2

For data set [5], the target named is T1, NRP-1 (Homo sapiens, UniProt O14786). In words: Binding of radiolabeled polymersomes to NRP1-coated magnetic beads. Conditions: 1 h incubation, gamma counter, N=3.
The target of data set [6] is T1, NRP-1. Conditions: unless proteolytically processed by uPA; cited from earlier work.
Data set [7] in a line: DLS size and polydispersity of polymersomes. It counts as physicochemical. Conditions: 3 independent measurements. As to the method: (§3) DLS and Z-potential measurements (Zetasizer Nano ZS, Malvern Instruments, USA) were used to assess the average size, polydispersity, and surface charge of polymersome preparations. The size was measured at a concentration of 1 mg polymer/mL in PBS (10 mM of phosphate and 137 mM of NaCl). The z-potential was measured at 0.2 mg of polymer/mL in NaCl 10 mM). TEM was used to assess the size and morphology of assembled vesicles. Briefly, polymersomes were deposited from a water solution onto copper grids at 1mg/mL, stained with 0.75% phosphotungstic acid (pH 7), air-dried, and imaged by TEM (Tecnai 10, Philips, Netherlands). The number of polymersomes in the suspension was measured using the ZetaWiew instrument (Particle Metrix GmbH, Germany).

Data set [8] is described as follows: Z-potential measurement of polymersomes. In kind it is physicochemical. Conditions: 0.2 mg polymer/mL in NaCl 10 mM; 3 independent measurements. Here is the method:
as §3

[9] abbreviates: 48 h after i.v. injection, gamma counter.

T1 sequence (O14786 22-923): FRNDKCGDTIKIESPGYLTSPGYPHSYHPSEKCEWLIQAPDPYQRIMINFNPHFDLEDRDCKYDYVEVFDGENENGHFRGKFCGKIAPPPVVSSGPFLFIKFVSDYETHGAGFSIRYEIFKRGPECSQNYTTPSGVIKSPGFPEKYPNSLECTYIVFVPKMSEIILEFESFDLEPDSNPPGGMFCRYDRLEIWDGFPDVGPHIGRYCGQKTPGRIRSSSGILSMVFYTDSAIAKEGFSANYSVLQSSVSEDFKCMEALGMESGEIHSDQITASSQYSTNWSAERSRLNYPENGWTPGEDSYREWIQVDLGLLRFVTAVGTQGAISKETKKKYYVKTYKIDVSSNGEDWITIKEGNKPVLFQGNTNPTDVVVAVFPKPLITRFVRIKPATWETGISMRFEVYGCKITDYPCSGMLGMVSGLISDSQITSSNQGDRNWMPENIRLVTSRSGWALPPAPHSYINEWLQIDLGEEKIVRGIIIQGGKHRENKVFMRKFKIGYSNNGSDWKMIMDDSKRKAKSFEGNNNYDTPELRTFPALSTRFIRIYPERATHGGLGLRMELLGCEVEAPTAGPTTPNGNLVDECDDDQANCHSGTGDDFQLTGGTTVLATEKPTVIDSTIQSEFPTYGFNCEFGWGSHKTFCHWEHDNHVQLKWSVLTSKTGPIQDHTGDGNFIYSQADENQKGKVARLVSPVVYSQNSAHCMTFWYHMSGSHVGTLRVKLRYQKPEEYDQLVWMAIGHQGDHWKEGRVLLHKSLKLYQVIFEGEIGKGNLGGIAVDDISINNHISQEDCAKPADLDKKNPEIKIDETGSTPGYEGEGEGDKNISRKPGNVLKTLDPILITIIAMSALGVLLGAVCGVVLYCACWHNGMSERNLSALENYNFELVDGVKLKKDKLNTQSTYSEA

Consider “Cys-Tyr-Ahx-LinTT1 [LinTT1-Tyr-^124I-PS, 124I-radiolabeled PEG-PCL polymersomes functionalized with Cys-Tyr-Ahx-LinTT1 peptide]”, for which, in data set [1], the “Injected polymersomes (124I) remaining in the body after 48 h” value was 45% and the “Injected polymersomes (124I) remaining in the body at 24 h” value was determined as 67%. In addition, in data set [2] (setting [9]), the “Accumulation in sentinel lymph node relative to Tyr-124I-PS” value was “more than 2 fold” and the “Ratio of % ID/g in tumor to liver” value is listed as 2.5 times. Also, the “Accumulation in tumors at 48 h” value in data set [2] (excised tumors, gamma counter, 48 h after i.v. injection, N=6, SEM) is 26±3 % ID/g. Besides, the “Increase in tumor accumulation by LinTT1 functionalization” value in data set [2] was greater than 70%. For the same substance, the “Increase in tumor accumulation by LinTT1 functionalization” value in data set [2] (listed as LinTT1-polymersomes) is on record as “about 70%”. The “Increase in binding to p32 beads compared to non-targeted polymersomes” value in data set [3] is recorded as roughly 10 fold. The “AUC in tumor, increase over non-targeted polymersomes” value in data set [4] (AUC of % ID/cc tumor versus time, 10 min to 48 h, N=5 mice) is reported as roughly 60%. Besides, the “Tumor accumulation at 48 h” value in data set [4] (PET quantification, 48 h after i.v. injection, N=5 mice, SEM) is on record as 12±0.9 ID/cc. Besides, in data set [4] (PET, 24 h after injection, N=5 mice), the “Tumor accumulation at 24 h, increase over untargeted polymersomes” value came out at 67%. Moreover, the “Accumulation in tumor at 24 h” value in data set [4] (i.v., 1 mg polymer, tumors ~20 mm^3, 24 h after administration, PET quantification) is on record as “up to 20 % ID/cc”. Moreover, in data set [4] (i.v., PET quantification, discussion statement), the “Tumor accumulation (no time stated)” value is given as greater than 20 % ID/cc. The “Binding to NRP-1” value at NRP-1 [5] is recorded as “did not bind”.
On to AKRGARSTA [LinTT1], for which the “Binding of the peptide to NRP-1” value on NRP-1 [6] is given as “does not bind”.
Consider “Cys-Tyr-Ahx-LinTT1 [LinTT1-Tyr-PS, PEG-PCL polymersomes functionalized with Cys-Tyr-Ahx-LinTT1 peptide]”, for which the Pdi in data set [7] (1 mg polymer/mL in PBS) is 0.15. Also, the “Size (hydrodynamic diameter)” value in data set [7] (intensity distribution, 1 mg polymer/mL in PBS (10 mM phosphate, 137 mM NaCl)) is ~130 nm and 124 ± 62 nm. Further, in data set [8], the Z-pot is on record as -0.1 ± 4 mV.
